Here are results for one molecule from ChEMBL document CHEMBL4373740, “Synthesis and biological evaluation of new MET inhibitors with 1,6-naphthyridinone scaffold” (Eur J Med Chem, 2020).

The target of data set [1] is Tyrosine-protein kinase JAK2 (Homo sapiens) (UniProt O60674). The data set is described as follows: Inhibition of recombinant full length human GST-tagged JAK2 expressed in baculovirus expression system at 1 uM using biotin as substrate preincubated for 5 mins followed by substrate addition and measured after 30 to 60 mins in presence of ATP by HTRF assay relative to control. For orientation: TR-FRET usually uses a lanthanide donor and a delayed reading to cut background.
Tyrosine-protein kinase JAK2 (Homo sapiens), sequence (O60674 whole entry): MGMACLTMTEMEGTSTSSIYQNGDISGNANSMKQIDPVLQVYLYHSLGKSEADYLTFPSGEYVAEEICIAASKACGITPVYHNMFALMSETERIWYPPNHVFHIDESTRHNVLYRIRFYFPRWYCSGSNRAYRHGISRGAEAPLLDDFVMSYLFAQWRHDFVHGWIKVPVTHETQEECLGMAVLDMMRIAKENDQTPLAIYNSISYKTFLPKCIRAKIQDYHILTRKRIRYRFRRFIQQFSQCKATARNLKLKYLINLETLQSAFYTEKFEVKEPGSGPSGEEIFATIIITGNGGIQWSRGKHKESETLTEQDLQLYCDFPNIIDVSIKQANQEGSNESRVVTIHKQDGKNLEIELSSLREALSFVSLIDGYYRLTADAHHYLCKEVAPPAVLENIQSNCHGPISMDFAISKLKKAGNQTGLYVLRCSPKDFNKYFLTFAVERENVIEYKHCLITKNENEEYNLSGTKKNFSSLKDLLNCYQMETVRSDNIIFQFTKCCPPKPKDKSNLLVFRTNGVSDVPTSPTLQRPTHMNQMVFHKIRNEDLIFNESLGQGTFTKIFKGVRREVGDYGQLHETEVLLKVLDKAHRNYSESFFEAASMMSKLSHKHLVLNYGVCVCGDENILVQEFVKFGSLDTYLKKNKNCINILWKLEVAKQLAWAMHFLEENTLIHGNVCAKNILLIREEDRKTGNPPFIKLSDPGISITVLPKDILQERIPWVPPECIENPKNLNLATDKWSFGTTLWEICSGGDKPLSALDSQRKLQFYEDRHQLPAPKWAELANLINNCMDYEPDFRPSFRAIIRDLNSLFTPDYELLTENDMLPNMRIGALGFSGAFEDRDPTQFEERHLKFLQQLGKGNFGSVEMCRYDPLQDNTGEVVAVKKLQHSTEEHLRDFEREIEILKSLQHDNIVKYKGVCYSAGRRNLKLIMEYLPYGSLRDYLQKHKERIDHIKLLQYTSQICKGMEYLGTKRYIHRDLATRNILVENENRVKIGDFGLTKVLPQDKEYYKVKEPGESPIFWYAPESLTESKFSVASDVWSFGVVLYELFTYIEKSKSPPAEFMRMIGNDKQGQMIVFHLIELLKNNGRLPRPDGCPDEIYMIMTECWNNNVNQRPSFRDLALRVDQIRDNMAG

Data set [2] concerns the target Tyrosine-protein kinase Mer (Homo sapiens, UniProt Q12866). The experiment in a line: Inhibition of recombinant human GST-tagged cMER (578 to 872 residues) expressed in baculovirus infected Sf21 insect cells using biotin as substrate preincubated for 5 mins followed by substrate addition and measured after 30 to 60 mins in presence of ATP by HTRF assay.
For data set [3], the target named is ALK tyrosine kinase receptor (Homo sapiens) (UniProt Q9UM73). The experiment in a line: Inhibition of human GST-tagged ALK cytoplasmic domain (1060 to end residues) expressed in sf9 cells at 1 uM using biotin as substrate preincubated for 5 mins followed by substrate addition and measured after 30 to 60 mins in presence of ATP by HTRF assay relative to control.

In data set [4] the target is Receptor-type tyrosine-protein kinase FLT3 (Homo sapiens) (UniProt P36888). The data set is described as follows: Inhibition of recombinant full length human His-tagged FLT3 expressed in baculovirus expression system at 1 uM using biotin as substrate preincubated for 5 mins followed by substrate addition and measured after 30 to 60 mins in presence of ATP by HTRF assay relative to control.

Data set [5] addresses High affinity nerve growth factor receptor (Homo sapiens, UniProt P04629). The experiment in a line: Inhibition of recombinant human His-tagged TRKA catalytic domain (441 to 796 residues) expressed in baculovirus expression system at 1 uM using biotin as substrate preincubated for 5 mins followed by substrate addition and measured after 30 to 60 mins in presence of ATP by HTRF assay relative to control.

A further data set deals with MKN-45. The experiment in a line: Antiproliferative activity against human MKN45 cells at 10 uM incubated for 72 hrs by MTT assay relative to control. The format is functional. The following applies: MKN-45, 72 h. Background: Tetrazolium assays rely on reduction of a dye to a coloured formazan, in cell work by metabolically active cells.
The target of data set [6] is Epidermal growth factor receptor (Homo sapiens) (UniProt P00533). The data set is described as follows: Inhibition of recombinant human GST-tagged EGFR (668 to 1210 residues) expressed in baculovirus expression system at 1 uM using biotin as substrate preincubated for 5 mins followed by substrate addition and measured after 30 to 60 mins in presence of ATP by HTRF assay relative to control.

The species entered for another data set is Homo sapiens. The experiment in a line: Selectivity index, ratio of IC50 for purified recombinant VEGFR2 kinase domain (unknown origin) to IC50 for purified recombinant MET kinase domain (unknown origin).
Data set [7] is described as follows: Antiproliferative activity against human NIH-H460 cells at 10 uM incubated for 72 hrs by MTT assay relative to control. Type of data set: functional. The following applies: NIH-H460, 72 h.
Data set [8] deals with Cyclin-dependent kinase 5/CDK5 activator 1 (Homo sapiens) (UniProt Q00535+Q15078). The data set is described as follows: Inhibition of recombinant full length human GST/His-tagged CDK5/p25 expressed in baculovirus expression system at 1 uM using biotin as substrate preincubated for 5 mins followed by substrate addition and measured after 30 to 60 mins in presence of ATP by HTRF assay relative to control.

Data set [9] deals with Vascular endothelial growth factor receptor 3 (Homo sapiens, UniProt P35916). The data set is described as follows: Inhibition of recombinant human GST-tagged FLT4 catalytic domain (800 to 1297 residues) expressed in baculovirus expression system at 1 uM using biotin as substrate preincubated for 5 mins followed by substrate addition and measured after 30 to 60 mins in presence of ATP by HTRF assay relative to control.

Data set [10] addresses Proto-oncogene tyrosine-protein kinase receptor Ret (Homo sapiens) (UniProt P07949). The data set is described as follows: Inhibition of recombinant human GST/His6-tagged RET (658 to 1114 residues) expressed in baculovirus infected Sf9 insect cells at 1 uM using biotin as substrate preincubated for 5 mins followed by substrate addition and measured after 30 to 60 mins in presence of ATP by HTRF assay relative to control.

Data set [11] addresses cAMP-dependent protein kinase catalytic subunit alpha (Homo sapiens) (UniProt P17612). The experiment in a line: Inhibition of recombinant full length human His-tagged PRKACA expressed in Escherichia coli at 1 uM using biotin as substrate preincubated for 5 mins followed by substrate addition and measured after 30 to 60 mins in presence of ATP by HTRF assay relative to control.

Data set [12] can be described thus: Mean residence time in Sprague-Dawley rat at 5.0 mg/kg, ig measured for 15 min to 72 hrs by LC-MS/MS analysis. Type of data set: ADME, organism-based. To be noted: in vivo, po.
Data set [13] deals with Tyrosine-protein kinase Lyn (Homo sapiens) (UniProt P07948). The experiment in a line: Inhibition of recombinant human N-terminal GST-tagged LYN A expressed in insect cells at 1 uM using biotin as substrate preincubated for 5 mins followed by substrate addition and measured after 30 to 60 mins in presence of ATP by HTRF assay relative to control.
Data set [14] in a line: Cmax in Sprague-Dawley rat at 5.0 mg/kg, ig measured for 15 min to 72 hrs by LC-MS/MS analysis. More on the design: dose 5 mg/kg, route intragastric. Type of data set: ADME, organism-based. To be noted: in vivo, po.
Data set [15] deals with Tyrosine-protein kinase receptor UFO (Homo sapiens, UniProt P30530). The experiment in a line: Inhibition of recombinant […] human N-terminal GST-tagged AXL (473 to end residues) expressed in baculovirus infected Sf21 insect cells using biotin as substrate preincubated for 5 mins followed by substrate addition and measured after 30 to 60 mins in presence of ATP by HTRF assay.

Data set [16] deals with Vascular endothelial growth factor receptor 2 (Homo sapiens, UniProt P35968). The data set is described as follows: Inhibition of purified recombinant VEGFR2 kinase domain (unknown origin) using biotin as substrate preincubated for 5 mins followed by substrate addition and measured after 30 to 60 mins in presence of ATP by HTRF assay.
Data set [17] has as its target Mitogen-activated protein kinase 3 (Homo sapiens) (UniProt P27361). The data set is described as follows: Inhibition of recombinant full length human GST-tagged MAPK3 expressed in Escherichia coli at 1 uM using biotin as substrate preincubated for 5 mins followed by substrate addition and measured after 30 to 60 mins in presence of ATP by HTRF assay relative to control.

Data set [18] has as its target Serine/threonine-protein kinase B-raf (Homo sapiens) (UniProt P15056). The data set is described as follows: Inhibition of recombinant full length human GST-tagged BRAF expressed in baculovirus expression system at 1 uM using biotin as substrate preincubated for 5 mins followed by substrate addition and measured after 30 to 60 mins in presence of ATP by HTRF assay relative to control.

Data set [19] can be described thus: Clearance in Sprague-Dawley rat at 1.0 mg/kg, iv measured for 5 min to 72 hrs by LC-MS/MS analysis. The format is ADME, organism-based. To be noted: in vivo.
For another data set, the target named is Angiopoietin-1 receptor (Homo sapiens, UniProt Q02763). The data set is described as follows: Inhibition of recombinant human GST-tagged TEK (817 to 1101 residues) expressed in baculovirus expression system at 1 uM using biotin as substrate preincubated for 5 mins followed by substrate addition and measured after 30 to 60 mins in presence of ATP by HTRF assay relative to control.
Angiopoietin-1 receptor, sequence (Q02763 whole entry, the tested form may be a part): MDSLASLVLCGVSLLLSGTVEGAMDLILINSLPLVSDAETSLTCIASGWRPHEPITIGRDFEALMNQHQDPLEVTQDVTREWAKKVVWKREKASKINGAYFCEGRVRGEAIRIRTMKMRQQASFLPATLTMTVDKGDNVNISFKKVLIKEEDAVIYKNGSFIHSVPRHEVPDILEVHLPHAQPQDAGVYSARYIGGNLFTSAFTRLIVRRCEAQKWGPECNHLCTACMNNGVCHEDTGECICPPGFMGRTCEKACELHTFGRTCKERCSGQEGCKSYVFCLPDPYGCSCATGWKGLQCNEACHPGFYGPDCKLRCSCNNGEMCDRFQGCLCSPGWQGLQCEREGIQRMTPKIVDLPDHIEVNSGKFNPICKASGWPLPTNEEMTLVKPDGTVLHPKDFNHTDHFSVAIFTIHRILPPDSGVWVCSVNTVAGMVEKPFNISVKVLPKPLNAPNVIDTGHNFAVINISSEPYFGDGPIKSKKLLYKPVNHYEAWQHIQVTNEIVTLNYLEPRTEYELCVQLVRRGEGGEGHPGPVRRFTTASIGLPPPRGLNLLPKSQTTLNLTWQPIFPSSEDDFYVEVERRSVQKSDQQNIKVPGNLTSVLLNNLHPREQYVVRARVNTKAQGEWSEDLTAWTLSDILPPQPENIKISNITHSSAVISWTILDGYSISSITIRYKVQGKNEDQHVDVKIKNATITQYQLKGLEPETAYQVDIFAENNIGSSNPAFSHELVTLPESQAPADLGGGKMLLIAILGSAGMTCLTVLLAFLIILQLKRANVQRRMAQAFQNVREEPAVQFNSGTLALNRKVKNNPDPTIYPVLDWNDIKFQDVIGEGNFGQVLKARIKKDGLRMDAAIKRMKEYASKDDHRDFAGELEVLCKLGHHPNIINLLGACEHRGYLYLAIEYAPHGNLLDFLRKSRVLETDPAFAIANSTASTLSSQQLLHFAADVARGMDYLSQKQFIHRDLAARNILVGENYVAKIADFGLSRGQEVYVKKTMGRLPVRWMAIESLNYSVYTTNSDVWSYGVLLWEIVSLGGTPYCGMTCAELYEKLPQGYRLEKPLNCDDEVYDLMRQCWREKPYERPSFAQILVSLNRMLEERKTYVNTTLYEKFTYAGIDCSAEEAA

The target in data set [20] is Tyrosine-protein kinase Lck (Homo sapiens) (UniProt P06239). The experiment in a line: Inhibition of recombinant full length human His-tagged LCK expressed in baculovirus expression system at 1 uM using biotin as substrate preincubated for 5 mins followed by substrate addition and measured after 30 to 60 mins in presence of ATP by HTRF assay relative to control.
Tyrosine-protein kinase Lck (Homo sapiens), sequence (P06239 2-509 limits assumed): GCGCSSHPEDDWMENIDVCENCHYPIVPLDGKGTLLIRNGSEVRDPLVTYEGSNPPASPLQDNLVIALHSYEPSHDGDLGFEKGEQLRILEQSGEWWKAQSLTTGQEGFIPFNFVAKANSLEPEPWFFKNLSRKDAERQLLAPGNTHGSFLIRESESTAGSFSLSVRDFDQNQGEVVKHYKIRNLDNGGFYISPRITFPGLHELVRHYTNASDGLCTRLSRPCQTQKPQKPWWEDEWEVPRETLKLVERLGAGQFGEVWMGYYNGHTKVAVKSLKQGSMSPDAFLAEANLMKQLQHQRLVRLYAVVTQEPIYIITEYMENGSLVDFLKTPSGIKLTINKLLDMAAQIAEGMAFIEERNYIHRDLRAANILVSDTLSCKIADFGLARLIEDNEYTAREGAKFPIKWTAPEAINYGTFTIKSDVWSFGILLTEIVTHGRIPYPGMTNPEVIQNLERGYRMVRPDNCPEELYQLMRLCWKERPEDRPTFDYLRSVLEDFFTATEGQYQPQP

The structures appear in SMILES notation.

Tyrosine-protein kinase Mer, sequence (Q12866 whole entry, the tested form may be a part): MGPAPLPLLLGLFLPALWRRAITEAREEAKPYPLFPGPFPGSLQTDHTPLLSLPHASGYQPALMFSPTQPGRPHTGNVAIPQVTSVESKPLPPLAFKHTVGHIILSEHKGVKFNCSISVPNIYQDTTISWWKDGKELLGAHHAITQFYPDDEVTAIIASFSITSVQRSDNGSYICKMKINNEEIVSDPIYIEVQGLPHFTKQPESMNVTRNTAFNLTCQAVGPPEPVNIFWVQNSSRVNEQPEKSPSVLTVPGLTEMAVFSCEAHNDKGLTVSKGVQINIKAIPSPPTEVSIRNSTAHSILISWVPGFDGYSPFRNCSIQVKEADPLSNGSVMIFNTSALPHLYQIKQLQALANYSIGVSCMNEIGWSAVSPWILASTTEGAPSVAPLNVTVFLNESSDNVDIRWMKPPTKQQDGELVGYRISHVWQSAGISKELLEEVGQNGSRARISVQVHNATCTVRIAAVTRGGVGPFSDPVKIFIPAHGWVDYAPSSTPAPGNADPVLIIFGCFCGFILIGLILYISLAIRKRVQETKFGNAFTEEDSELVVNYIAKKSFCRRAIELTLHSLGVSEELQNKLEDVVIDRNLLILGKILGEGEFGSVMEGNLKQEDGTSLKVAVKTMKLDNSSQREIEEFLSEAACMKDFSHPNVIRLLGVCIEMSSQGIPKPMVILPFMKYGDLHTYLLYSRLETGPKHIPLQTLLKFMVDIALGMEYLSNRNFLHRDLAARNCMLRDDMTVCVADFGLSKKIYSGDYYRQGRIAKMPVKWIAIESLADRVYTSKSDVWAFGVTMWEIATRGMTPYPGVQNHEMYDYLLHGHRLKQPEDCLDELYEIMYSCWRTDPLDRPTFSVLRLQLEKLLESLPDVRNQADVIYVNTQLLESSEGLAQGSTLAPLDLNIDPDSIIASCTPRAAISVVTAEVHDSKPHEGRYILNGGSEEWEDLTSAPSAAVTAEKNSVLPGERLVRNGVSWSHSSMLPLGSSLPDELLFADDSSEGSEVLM
Proto-oncogene tyrosine-protein kinase receptor Ret (Homo sapiens), sequence (P07949 whole entry, the tested form may be a part): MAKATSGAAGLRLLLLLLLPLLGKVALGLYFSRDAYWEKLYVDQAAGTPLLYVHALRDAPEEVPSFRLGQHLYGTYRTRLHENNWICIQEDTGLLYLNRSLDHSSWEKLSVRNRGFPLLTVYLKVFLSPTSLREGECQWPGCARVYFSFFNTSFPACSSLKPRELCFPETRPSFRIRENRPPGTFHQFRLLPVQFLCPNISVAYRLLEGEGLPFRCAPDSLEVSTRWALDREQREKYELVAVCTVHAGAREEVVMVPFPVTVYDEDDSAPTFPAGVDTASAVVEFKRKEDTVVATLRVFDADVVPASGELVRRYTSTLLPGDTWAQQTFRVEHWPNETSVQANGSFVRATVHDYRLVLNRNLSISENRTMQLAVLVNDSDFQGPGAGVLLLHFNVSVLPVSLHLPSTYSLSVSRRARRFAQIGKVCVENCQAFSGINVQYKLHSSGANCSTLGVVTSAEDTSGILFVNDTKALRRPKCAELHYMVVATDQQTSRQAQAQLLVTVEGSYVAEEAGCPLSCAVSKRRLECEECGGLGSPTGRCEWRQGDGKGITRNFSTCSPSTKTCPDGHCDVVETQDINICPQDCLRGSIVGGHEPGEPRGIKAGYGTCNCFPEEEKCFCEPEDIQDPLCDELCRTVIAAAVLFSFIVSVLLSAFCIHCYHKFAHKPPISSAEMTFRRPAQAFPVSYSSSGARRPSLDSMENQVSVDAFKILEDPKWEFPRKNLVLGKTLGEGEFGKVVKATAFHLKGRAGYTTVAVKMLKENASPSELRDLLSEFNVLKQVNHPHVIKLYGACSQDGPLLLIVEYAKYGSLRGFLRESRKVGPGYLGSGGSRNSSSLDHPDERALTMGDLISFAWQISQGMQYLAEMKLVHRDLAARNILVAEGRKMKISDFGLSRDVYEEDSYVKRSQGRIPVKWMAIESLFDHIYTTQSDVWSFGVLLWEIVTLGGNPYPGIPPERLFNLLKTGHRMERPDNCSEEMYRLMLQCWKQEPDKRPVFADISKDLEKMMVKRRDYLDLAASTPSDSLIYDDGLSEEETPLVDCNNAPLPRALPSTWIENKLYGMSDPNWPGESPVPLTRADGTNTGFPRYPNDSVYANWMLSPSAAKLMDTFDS

The inhibition is the share of the control response that was lost under treatment. For orientation: IC50 means the point on the concentration scale where inhibition reaches its midpoint. What is called MRT is a mean duration of stay, worked out from the concentration-time curve. In general, Cmax refers to the peak of the concentration-time curve. The clearance is the rate of elimination divided by the concentration. As for `Cn1cc(-c2ccc(F)cc2)c(=O)c2c(Nc3ccc(Oc4ccnc(NC(=O)C5CC5)c4)c(F)c3)nccc21`, the inhibition is less than 50% in [1]; less than 50% in data set [3]; more than 80% in [4]; more than 80% in data set [5]; less than 50% in [6]; less than 50% in data set [8]. In addition, the inhibition in [9], in data set [10], in data set [11], in data set [13], in [17] and in data set [18] was less than 50% each time. Further, the inhibition (at Angiopoietin-1 receptor; in data set [20]) was 50 to 79% throughout. Besides, the IC50 in [2] came out at 4.2 nM; in [15], 8.2 nM; in data set [16], 22900 nM. Besides, the inhibition at 10 µM in the data set with MKN-45 was determined as 30.9%; in data set [7] it was 15.6%. In the data set filed under Homo sapiens, the Ratio IC50 turned out to be 3230. The molecule also yielded an MRT in data set [12] of 32.4 h. In [14], the Cmax was determined as 7800 ng/mL. Also, the clearance in [19] is 0.167 mL/min/kg.
